Experiments:
[1] = tested on: histamine-induced skin vascular permeability; test: Inhibitory effect on histamine-induced vascular permeability in mice; type: in vivo, ICR mice; settings: Mus musculus, po; 5 mg/kg intragastric 1 hour before modeling; histamine phosphate 1 ug/0.1 mL; Evans Blue absorbance at 610 nm; read-out: Inhibition rate (%)
Experimental: Intragastric administration was performed 1 hour before modeling. The model group was given the corresponding solvent. […] 10% sodium sulfide was used to depilate the back of mice (3 cm×3 cm). The mice were injected 1 ug/0.1 mL of histamine phosphate physiological saline solution into the depilation site one hour after the administration, and injected 0.25% Evans Blue solution 4 ml/kg from the tail vein immediately after the injection. After 30 minutes, the mice were dislocated and sacrificed. The blue-stained part of the skin was removed and perforated (diameter 15 mm), cut into pieces and soaked in 1 ml of acetone-saline (7:3) solution. After 24 h, it was centrifuged (3000 r/min, 10 min) to take the supernatant. The absorbance of the sample was measured with an ultraviolet spectrophotometer at a wavelength of 610 nm and a blank zero calibration with acetone-physiological saline solution.

hERG potassium channel = hERG potassium channel (Homo sapiens, UniProt Q12809); test: hERG potassium channel activity test; type: biochemical
hERG potassium channel, sequence (Q12809 whole entry): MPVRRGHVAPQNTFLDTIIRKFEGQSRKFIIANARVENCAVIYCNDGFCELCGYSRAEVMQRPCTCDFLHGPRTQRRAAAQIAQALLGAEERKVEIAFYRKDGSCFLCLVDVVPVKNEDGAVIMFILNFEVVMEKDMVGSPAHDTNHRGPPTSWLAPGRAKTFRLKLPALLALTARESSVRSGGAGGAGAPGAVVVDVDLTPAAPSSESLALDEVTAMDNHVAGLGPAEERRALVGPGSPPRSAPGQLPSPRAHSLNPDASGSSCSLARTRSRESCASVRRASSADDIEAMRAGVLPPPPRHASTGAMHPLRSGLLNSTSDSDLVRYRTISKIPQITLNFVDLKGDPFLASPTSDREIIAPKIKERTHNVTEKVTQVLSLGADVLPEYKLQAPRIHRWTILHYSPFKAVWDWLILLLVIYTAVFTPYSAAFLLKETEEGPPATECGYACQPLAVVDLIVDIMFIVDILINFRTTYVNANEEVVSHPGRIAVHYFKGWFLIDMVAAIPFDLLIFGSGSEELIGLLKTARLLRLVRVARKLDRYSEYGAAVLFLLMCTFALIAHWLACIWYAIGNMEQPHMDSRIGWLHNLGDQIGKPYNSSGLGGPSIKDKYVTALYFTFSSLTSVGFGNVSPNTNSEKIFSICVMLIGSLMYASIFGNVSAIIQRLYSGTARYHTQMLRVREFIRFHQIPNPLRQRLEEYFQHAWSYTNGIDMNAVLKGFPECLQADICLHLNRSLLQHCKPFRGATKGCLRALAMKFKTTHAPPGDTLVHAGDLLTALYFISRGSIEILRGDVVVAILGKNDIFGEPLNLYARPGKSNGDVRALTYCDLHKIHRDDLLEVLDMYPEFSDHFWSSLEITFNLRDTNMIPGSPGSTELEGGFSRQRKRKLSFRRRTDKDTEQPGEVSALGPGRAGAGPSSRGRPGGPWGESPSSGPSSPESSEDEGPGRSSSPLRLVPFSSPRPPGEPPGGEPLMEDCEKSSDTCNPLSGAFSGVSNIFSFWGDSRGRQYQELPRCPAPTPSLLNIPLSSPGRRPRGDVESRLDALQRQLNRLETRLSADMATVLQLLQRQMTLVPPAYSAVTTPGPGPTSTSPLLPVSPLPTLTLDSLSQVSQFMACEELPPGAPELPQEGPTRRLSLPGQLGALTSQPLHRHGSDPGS

[2] = tested on: pilocarpine-induced saliva secretion; test: Pilocarpine-induced salivation in rats; settings: for saliva secretion compared with the model group: 10 mg/kg intragastric administration; for Inhibition rate (%): 10 mg/kg intragastric, pilocarpine 1 mg/kg i.p. 15 minutes later, saliva collected 10 minutes
Experimental: Rats in each group were given corresponding drugs by intragastric administration. 15 minutes later, pilocarpine (1 mg/kg, dissolved in physiological saline) was injected intraperitoneally to induce saliva secretion. The rat was immediately anesthetized by intraperitoneal injection of 10% chloral hydrate. After the rat was anesthetized, the residual saliva in the oral cavity was taken out with a cotton ball in that the weighed cotton ball (M1) was placed in the oral cavity (two under the tongue and one for each on both sides). The cotton ball was taken out 10 minutes later and the weight of the cotton ball (M2) was immediately measured.
Inhibition rate=Saliva secretion in drug administration group/Saliva secretion in model group×100%

saliva secretion compared with the model group [2]	Inhibition rate (%) [2] [%]	SMILES	inhibition in vivo at 5 mg/kg [1] [%]	IC50 (hERG potassium channel) [µM]
decreased	84.30	Cc1ccc2c(c1)CCc1cccnc1C2=C1CCN(CCCc2ccc(C(=O)O)cc2)CC1 [Compound 1, reference compound]	36.1	2.03
	95.60	COc1ccccc1OCC(O)CN1CCC(=C2c3ccc(Cl)cc3CCc3cccnc32)CC1 (stereo not drawn) [Compound LHC-7, reference compound]	53.2	0.248
decreased	98.40	Cc1nc(C)c(CN2CCC(=C3c4ccc(Cl)cc4CCc4cccnc43)CC2)nc1C [Compound LP-2, reference compound]	54.1	4.03
	18.53	CC(C)(C(=O)O)c1ccc(CN2CCC(=C3c4ccc(Cl)cc4CCc4cccnc43)CC2)cc1 [Example 1, 2-(4-((4-(8-chloro-5,6-dihydro-11H-benzo[5,6]cyclohept[1,2-b]pyridine-11-enyl)piperidine-1-yl)methyl)phenyl)-2-methylpropionic acid]	52.2	> 30
	7.64	CC(C)(C(=O)O)c1ccc(CCN2CCC(=C3c4ccc(Cl)cc4CCc4cccnc43)CC2)cc1 [Example 2, 2-(4-(2-(4-(4-(8-chloro-5,6-dihydro-11H-benzo[5,6]]cyclohept[1,2-b]pyridine-11-enyl)piperidin-1-yl)ethyl)phenyl)-2-methylpropionic acid]	54	
	7.02	CC(C)(C(=O)O)c1ccc(CCCN2CCC(=C3c4ccc(Cl)cc4CCc4cccnc43)CC2)cc1 [Example 3, 2-(4-(3-(4-(8-chloro-5,6-dihydro-11H-benzo[5,6]cyclohept[1,2-b]pyridine-11-enyl)piperidine-1-yl)propyl)phenyl)-2-methylpropionic acid]	41.7	> 30
	11.60	COc1cc(C(C)(C)C(=O)O)ccc1CCCN1CCC(=C2c3ccc(Cl)cc3CCc3cccnc32)CC1 [Example 5, 2-(4-(3-(4-(8-chloro-5,6-dihydro-11H-benzo[5,6]cyclohepta[1,2-b]pyridine-11-enyl)piperidine-1-yl)propyl)-3-methoxyphenyl)-2-methylpropionic acid]	47.9	
	6.34	CC(C)(C(=O)O)c1ccc(CCCN2CCC(=C3c4ccc(Cl)cc4CCc4cccnc43)CC2)c(N)c1 [Example 6, 2-(3-Amino-4-(3-(4-(8-chloro-5,6-dihydro-11H-benzo[5,6]cyclohept[1,2-b]pyridine-11-enyl)piperidin-1-yl)propyl)phenyl)-2-methylpropionic acid]	53.2	
	12.01	CC(C)(C(=O)O)c1ccc(CCCN2CCC(=C3c4ccc(Cl)cc4CCc4cccnc43)CC2)cc1F [Example 9, 2-(4-(3-(4-(8-chloro-5,6-dihydro-11H-benzo[5,6]cyclohepta[1,2-b]pyridine-11-enyl)piperidine-1-yl)propyl)-2-fluorophenyl)-2-methylpropionic acid]	50.6	
	5.13	Cc1cc(C(C)(C)C(=O)O)ccc1CCCN1CCC(=C2c3ccc(Cl)cc3CCc3cccnc32)CC1 [Example 10, 2-(4-(3-(4-(8-chloro-5,6-dihydro-11H-benzo[5,6]cyclohepta[1,2-b]pyridine-11-enyl)piperidine-1-yl)propyl)-3-methylphenyl)-2-methylpropionic acid]	41.2	
	7.48	CC(C)(C(=O)O)c1ccc(CCCN2CCC(=C3c4ccc(Cl)cc4CCc4cccnc43)CC2)c(C(F)(F)F)c1 [Example 12]	44.6	
	5.77	CC(C)(C(=O)O)c1ccc(CCCN2CCC(=C3c4ccc(Cl)cc4CCc4cccnc43)CC2)cc1C(F)(F)F [Example 13]	51	
	3.78	CC(C)(C(=O)O)c1ccc(CCCN2CCC(=C3c4ccc(Cl)cc4CCc4cccnc43)CC2)c(Br)c1 [Example 14, 2-(3-Bromo-4-(3-(4-(8-chloro-5,6-dihydro-11H-benzo[5,6]cyclohept[1,2-b]pyridine-11-enyl)piperidin-1-yl)propyl)phenyl)-2-methylpropionic acid]	42.8	
	8.42	CC(C)(C(=O)O)c1ccc(CCCN2CCC(=C3c4ccc(Cl)cc4CCc4cccnc43)CC2)c(Cl)c1 [Example 15, 2-(3-chloro-4-(3-(4-(8-chloro-5,6-dihydro-11H-benzo[5,6]cyclohept[1,2-b]pyridine-11-enyl)piperidin-1-yl)propyl)phenyl)-2-methylpropionic acid]	52.8	
	10.76	CC(C)(C(=O)O)c1ccc(CCCN2CCC(=C3c4ccc(Cl)cc4CCc4cccnc43)CC2)c([N+](=O)[O-])c1 [Example 16, 2-(4-(3-(4-(8-chloro-5,6-dihydro-11H-benzo[5,6]cyclohepta[1,2-b]pyridine-11-enyl)piperidine-1-yl)propyl)-2-nitrophenyl)-2-methylpropionic acid]	50.8	
	6.54	CC(C)(C(=O)O)c1ccc(CCCN2CCC(=C3c4ccc(Cl)cc4CCc4cccnc43)CC2)cc1[N+](=O)[O-] [Example 17, 2-(4-(3-(4-(8-chloro-5,6-dihydro-11H-benzo[5,6]cyclohepta[1,2-b]pyridine-11-enyl)piperidine-1-yl)propyl)-3-nitrophenyl)-2-methylpropionic acid]	49.2	
	12.50	CC(C)(C(=O)O)c1ccc(CCCN2CCC(=C3c4ccc(Cl)cc4CC(O)c4cccnc43)CC2)cc1 (stereo not drawn) [Example 18]	46.6	
	11.83	CC(C)(C(=O)O)c1ccc(CCCN2CCC(=C3c4ccc(Cl)cc4C(O)Cc4cccnc43)CC2)cc1 (stereo not drawn) [Example 19]	53.3	
	7.65	CC(C)(C(=O)O)c1ccc(CCCN2CCC(=C3c4ccc(Cl)cc4CCc4cc(O)cnc43)CC2)cc1 [Example 20]	58	
	18.43	CC(C)(C(=O)O)c1ccc(CCCN2CCC(=C3c4ccccc4CC(=O)c4sccc43)CC2)cc1 [Example 22, 2-Methyl-2-(4-(3-(4-(10-oxo-9,10-dihydro-4H-benzo[4,5]cyclohepta[1,2-b]thiophene-4-alkylene)piperidin 1-yl)propyl)phenyl) propionic acid]	63.3	
	8.54	CC(C)(C(=O)O)c1ccc(CCCN2CCC(=C3c4ccccc4CC(O)c4sccc43)CC2)cc1 (stereo not drawn) [Example 23, 2-(4-(3-(4-(10-hydroxy-9,10-dihydro-4H-benzo[4,5]cyclohept[1,2-b]thiophen-4-alkylene)piperidin-1-yl)propyl)phenyl)-2-methylpropionic acid]	66.7	
	10.32	CC(C)(C(=O)O)c1ccc(CCCCN2CCC(=C3c4ccc(Cl)cc4CCc4cccnc43)CC2)cc1 [Example 24]	47.6	
	9.68	CC(C)(C(=O)O)c1cccc(CCCN2CCC(=C3c4ccc(Cl)cc4CCc4cccnc43)CC2)c1 [Example 25, 2-(3-(3-(4-(8-chloro-5,6-dihydro-11H-benzo [5,6]cyclohepta [1,2-b]pyridine-11-enyl)piperidine-1-yl)propyl)phenyl)-2-methylpropionic acid]	66.8	
	5.48	CC(C)(C(=O)O)c1cccc(CCCN2CCC(=C3c4ccccc4CC(O)c4sccc43)CC2)c1 (stereo not drawn) [Example 27, 2-(3-(3-(4-(10-hydroxy-9,10-dihydro-4H-benzo[4,5]cyclohepta[1,2-b]thiophene-4-alkylene)piperidin-1-yl)propyl)phenyl)-2-methylpropionic acid]	48.8	
	19.65	CC(C)(C(=O)O)c1ccccc1CCCN1CCC(=C2c3ccc(Cl)cc3CCc3cccnc32)CC1 [Example 28, 2-(2-(3-(4-(8-chloro-5,6-dihydro-11H-benzo[5,6]cyclohepta[1,2-b]pyridine-11-enyl)piperidine-1-yl)propyl)phenyl)-2-methylpropionic acid]	43.8	
	6.74	CC(C)(C(=O)O)c1cccc(C(O)CCCN2CCC(=C3c4ccc(Cl)cc4CCc4cccnc43)CC2)c1 (stereo not drawn) [Example 30, 2-(3-(4-(4-(8-chloro-5,6-dihydro-11H-benzo[5,6]cyclohepta[1,2-b]pyridine-11-enyl)piperidine-1-yl)-1-hydroxybutyl)phenyl)-2-methylpropionic acid]	52.2	
	13.25	CC(C)(C(=O)O)c1cccc(C(O)CCN2CCC(=C3c4ccc(Cl)cc4CCc4cccnc43)CC2)c1 (stereo not drawn) [Example 31, 2-(3-(3-(4-(8-chloro-5,6-dihydro-11H-benzo[5,6]cyclohepta[1,2-b]pyridine-11-enyl)piperidine-1-yl)-1-hydroxypropyl)phenyl)-2-methylpropionic acid]	48	
	18.93	CC(C)(C(=O)[O-])c1ccc(CCN2CCC(=C3c4ccc(Cl)cc4CCc4cccnc43)CC2)cc1.[Na+] [Example 32]		> 30

Reference: patent US20230140276A1, “TRICYCLIC COMPOUNDS, PREPARATION METHOD AND MEDICAL USE THEREOF” (HEFEI INSTITUTE OF PHARMACEUTICAL INDUSTRY CO., LTD., priority 2020, published 2023)
